Assay results published in article PMC5552880, “The Bitter Taste Receptor TAS2R16 Achieves High Specificity and Accommodates Diverse Glycoside Ligands by using a Two-faced Binding Pocket” (Scientific Reports, 2017).

Legend:
[1] = target: T1, L59P TAS2R16 (Homo sapiens, UniProt Q9NYV7, L59P); experiment: Ca2+ flux assay, mutation library clone L59P; format: cell-based; conditions: 3 mM salicin, mean (range, max-min), n=3
T1 construct: Each construct in the mutation library was tested for full-length TAS2R16 translation; V5; expressed in transfected cells; host or cells: HEK-293T
Description: (§1) The TAS2R16 mutation library was tested for function using a Ca^2+ flux assay as described previously. Later screens of individual TAS2R16 mutant clones used 4-nitrophenyl-β-D-glucopyranoside. Briefly, HEK-293T cells, in poly-lysine coated, black 384-well plates with clear bottoms (Costar), were transfected with the TAS2R16 mutation library, and a plasmid expressing a Gα16 chimera containing the last 44 amino acids of rat gustducin (Gα16gust44). Cells were incubated for 22 hours at 37 °C then washed twice with a calcium indicator dye in HBSS containing 20 mM HEPES (Calcium 4 Assay kit, Molecular Devices), incubated with HBSS for 1.5 hr, then moved to a Flexstation II-384 (Molecular Devices) set at 32 °C. […] Concentrations for mutation library screening were chosen to be approximately 2 to 3 times higher than the EC50 values for the ligands to maximize the sensitivity of detecting decreases in signaling due to the mutation in each clone.
(§2) For Ca^2+ flux assays, the value of fluorescence at 30 seconds after ligand addition (the time of peak signal for wild-type TAS2R16) was used as the maximum value. […] Data sets were analyzed and represented as percentage over baseline signal. Mean and standard deviation values were calculated for each clone from replicate assay data.

[2] = target: T2, M271R TAS2R16 (Homo sapiens, UniProt Q9NYV7, M271R); experiment: Ca2+ flux assay, mutation library clone M271R; format: cell-based; conditions: 3 mM salicin, mean (range, max-min), n=3
T2 construct: Each construct in the mutation library was tested for full-length TAS2R16 translation; V5; expressed in transfected cells; host or cells: HEK-293T
Description: as §1, §2

[3] = target: T3, I21F TAS2R16 (Homo sapiens, UniProt Q9NYV7, I21F); experiment: Ca2+ flux assay, mutation library clone I21F; format: cell-based; conditions: 3 mM salicin, mean (range, max-min), n=3
T3 construct: FLAG (N); expressed in transfected cells; host or cells: HEK-293T
Description: as §1, §2

[4] = target: T4, D46A TAS2R16 (Homo sapiens, UniProt Q9NYV7, D46A); experiment: Ca2+ flux assay, mutation library clone D46A; format: cell-based; conditions: 3 mM salicin, mean (range, max-min), n=3
T4 construct: FLAG (N); expressed in transfected cells; host or cells: HEK-293T
Description: as §1, §2

[5] = tested on: TAS2R16; conditions: read-out: EC50, reported value; cited from earlier work
[6] = target: T5, S108T TAS2R16 (Homo sapiens, UniProt Q9NYV7, S108T); experiment: Ca2+ flux assay, mutation library clone S108T; format: cell-based; conditions: library screening concentrations
T5 construct: FLAG (N); expressed in transfected cells; host or cells: HEK-293T
T5 sequence (Q9NYV7 1-291 S108T): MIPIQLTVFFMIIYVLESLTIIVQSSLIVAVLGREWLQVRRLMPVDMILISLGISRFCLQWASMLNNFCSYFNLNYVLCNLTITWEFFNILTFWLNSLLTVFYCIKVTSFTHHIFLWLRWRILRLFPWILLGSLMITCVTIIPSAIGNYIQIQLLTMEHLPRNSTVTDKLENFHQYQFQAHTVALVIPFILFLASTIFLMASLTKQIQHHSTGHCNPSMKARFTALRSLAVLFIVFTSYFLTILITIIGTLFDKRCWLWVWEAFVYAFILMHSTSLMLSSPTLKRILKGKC
Description: as §1
For Ca^2+ flux assays, the value of fluorescence at 30 seconds after ligand addition (the time of peak signal for wild-type TAS2R16) was used as the maximum value. […] Raw data obtained from surface expression and flux experiments were normalized to the values for wild-type TAS2R16 on each plate. Data sets were analyzed and represented as percentage over baseline signal. Mean and standard deviation values were calculated for each clone from replicate assay data.

[7] = target: T6, R56P TAS2R16 (Homo sapiens, UniProt Q9NYV7, R56P); experiment: Ca2+ flux assay, mutation library clone R56P; format: cell-based; conditions: 3 mM salicin, mean (range, max-min), n=3
T6 construct: FLAG (N); expressed in transfected cells; host or cells: HEK-293T
Description: as §1, §2

[8] = target: T7, C104R TAS2R16 (Homo sapiens, UniProt Q9NYV7, C104R); experiment: Ca2+ flux assay, mutation library clone C104R; format: cell-based; conditions: 3 mM salicin, mean (range, max-min), n=3
T7 construct: Each construct in the mutation library was tested for full-length TAS2R16 translation; V5; expressed in transfected cells; host or cells: HEK-293T
Description: as §1, §2

[9] = target: T8, L191R TAS2R16 (Homo sapiens, UniProt Q9NYV7, L191R); experiment: Ca2+ flux assay, mutation library clone L191R; format: cell-based; conditions: 3 mM salicin, mean (range, max-min), n=3
T8 construct: Each construct in the mutation library was tested for full-length TAS2R16 translation; V5; expressed in transfected cells; host or cells: HEK-293T
Description: as §1, §2

[10] = target: T9, W61R TAS2R16 (Homo sapiens, UniProt Q9NYV7, W61R); experiment: Ca2+ flux assay, mutation library clone W61R; format: cell-based; conditions: 3 mM salicin, mean (range, max-min), n=3
T9 construct: V5; expressed in transfected cells; host or cells: HEK-293T
Description: as §1, §2

T2 sequence (Q9NYV7 whole entry M271R): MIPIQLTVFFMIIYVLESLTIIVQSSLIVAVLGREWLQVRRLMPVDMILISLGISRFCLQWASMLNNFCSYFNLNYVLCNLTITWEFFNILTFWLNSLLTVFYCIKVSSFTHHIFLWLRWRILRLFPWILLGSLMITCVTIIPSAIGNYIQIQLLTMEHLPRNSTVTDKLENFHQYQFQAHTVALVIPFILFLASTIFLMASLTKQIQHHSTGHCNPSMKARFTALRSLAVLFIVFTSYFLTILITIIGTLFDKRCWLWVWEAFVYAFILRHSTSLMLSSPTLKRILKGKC
T1 sequence (Q9NYV7 whole entry L59P): as the sequence (Q9NYV7 whole entry M271R) above, with L59P, R271M counted along it
T8 sequence (Q9NYV7 whole entry L191R): as the sequence (Q9NYV7 whole entry M271R) above, with L191R, R271M counted along it
T3 sequence (Q9NYV7 whole entry I21F): as the sequence (Q9NYV7 whole entry M271R) above, with I21F, R271M counted along it
T9 sequence (Q9NYV7 whole entry W61R): as the sequence (Q9NYV7 whole entry M271R) above, with W61R, R271M counted along it
T4 sequence (Q9NYV7 whole entry D46A): as the sequence (Q9NYV7 whole entry M271R) above, with D46A, R271M counted along it
T7 sequence (Q9NYV7 whole entry C104R): as the sequence (Q9NYV7 whole entry M271R) above, with C104R, R271M counted along it
T6 sequence (Q9NYV7 whole entry R56P): as the sequence (Q9NYV7 whole entry M271R) above, with R56P, R271M counted along it

With `OCc1ccccc1O[C@@H]1O[C@H](CO)[C@@H](O)[C@H](O)[C@H]1O` [salicin] the “Ca2+ flux in response to salicin” value [1] was 2 (3) % of wild-type, the “Ca2+ flux in response to salicin” value [2] was 7 (6) % of wild-type and the “Ca2+ flux in response to salicin” value [3] was 9 (5) % of wild-type. For the same molecule, the “Ca2+ flux in response to salicin” value [4] was 8 (9) % of wild-type, the EC50 [5] was 3000 µM and the “Ca2+ flux signaling value” [6] was 99 % of wild-type. The “Ca2+ flux in response to salicin” value [7] was 2 (1) % of wild-type, the “Ca2+ flux in response to salicin” value [8] was 9 (1) % of wild-type and the “Ca2+ flux in response to salicin” value [9] was 1 (3) % of wild-type. For the same molecule, the “Ca2+ flux in response to salicin” value [10] was 15 (7) % of wild-type.
